No end group written: not given here.
System: E. coli Rosetta DE3 pLysS
Test: MIC, liquid broth microdilution assay
Assay type: cell-based, Escherichia coli
Details: 25% MHBII, 7.5 × 10^6 CFU/mL, 20 ± 2 h at 37 °C, turbidity at 600 nm, at least twice in triplicates
Experimental: Minimal inhibitory concentrations (MICs) were determined at least twice in triplicates, using a liquid broth microdilution assay in sterile 96-well plates and a total volume of 100 μL per well. Aqueous peptide solutions were serially two-fold diluted in 50 µL of 25% MHBII or LB medium (Luria/Miller). Overnight cultures were diluted in 25% MHBII or LB medium (Luria/Miller) to 1.5 × 10^7 cells per mL and an aliquot of 50 μL was added to each well. The final cell count in each well was 7.5 × 10^6 CFU/mL. The plates were incubated for 20 ± 2 h at 37 °C. The turbidity of each well was measured at 600 nm.

## GNNRPIYIPRPRPPHPRPIRV [Api805]
  MIC: 4 µg/mL

## GNNRPVYIPRPRPPHPRL [Api801]
  MIC: 2 µg/mL
